Test results reported in ChEMBL document CHEMBL5050861 (2021).
Converted amounts (≈) assume the structure as drawn.

Experiments:
[1] = Inhibition of recombinant mouse GALK1 using ATP as substrate incubated for 1 hr and measured by Kinase-Glo assay; conditions: read-out: IC50
[2] = Kinetic aqueous solubility of the compound; format: physicochemical; conditions: buffer; read-out: Kinetic_solubility
[3] = Stability of compound in rat microsomes assessed as half-life; format: ADME, Microsome
[4] = Permeability of compound by PAMPA assay; format: ADME; conditions: for Papp: read-out: permeability

| Structure (SMILES) | IC50 [1] [µM] | solubility kinetic [2] [µg/mL] | half-life [3] [min] | Papp [4] [×10⁻⁶ cm/s] | permeability [4] |
| --- | --- | --- | --- | --- | --- |
| CC1=C(C(=O)Nc2cccc(CO)c2)C(c2ccccc2Cl)N=C(Nc2nc3ccccc3o2)N1 (configuration not stated) | 9.68 | < 1 | > 30 | – | 1124.1 10^-6 cm/s |
| CC1=C(C(=O)Nc2cc(C(=O)O)ccn2)C(c2ccc(-c3ccc(C(F)(F)F)nc3)cc2Cl)N=C(Nc2nc3ccc(F)cc3o2)N1 (configuration not stated) | 3.85 | 28.6 (≈ 42.9 µM) | > 30 | < 1 | – |
| CC1=C(C(=O)Nc2cc(C(=O)O)ccn2)C(c2ccc(-c3ccc(C)nc3)cc2Cl)N=C(Nc2nc3ccc(F)cc3o2)N1 (configuration not stated) | 1.22 | > 90 | > 30 | < 1 | – |
| CC1=C(C(=O)Nc2cc(C(=O)O)ccn2)C(c2ccc(-n3ccnc3)cc2Cl)N=C(Nc2nc3ccc(F)cc3o2)N1 (configuration not stated) | 0.97 | > 87 | > 30 | < 1 | – |
| COc1ccc([C@@H]2N=C(Nc3nc4cccc(N)c4o3)NC(C)=C2C(=O)Nc2cc(C(=O)O)ccn2)c(Cl)c1 | 2.43 | > 81 | > 30 | < 1 | – |
| CC1=C(C(=O)Nc2cc(-c3nn[nH]n3)ccn2)C(c2ccccc2Cl)N=C(Nc2nc3ccc(F)cc3o2)N1 (configuration not stated) | 7.69 | 29.9 (≈ 54.9 µM) | > 30 | < 1 | – |
| CC1=C(C(=O)Nc2cc(C(=O)O)ccn2)C(c2ccc(C#N)cc2Cl)N=C(Nc2nc3ccc(F)cc3o2)N1 (configuration not stated) | 3.85 | > 81 | > 30 | < 1 | – |
| CC1=C(C(=O)Nc2cc(C(=O)O)ccn2)C(c2ccccc2Cl)N=C(Nc2nc3ccccc3o2)N1C(=O)c1ccccc1 (configuration not stated) | 7.69 | 73.9 (≈ 122 µM) | > 30 | < 1 | – |
| CC1=C(C(=O)Nc2cccc(-c3cn[nH]c3)c2)C(c2ccccc2Cl)N=C(Nc2nc3ccccc3o2)N1 (configuration not stated) | 38.5 | < 1 | > 30 | < 25.4 | – |
| CC1=C(C(=O)NCc2cccnc2)C(c2ccccc2Cl)N=C(Nc2nc3ccccc3o2)N1 (configuration not stated) | 19.3 | < 1 | 1.58 | – | 1248.8 10^-6 cm/s |
| CC1=C(C(=O)Nc2cc(C(=O)O)ccn2)C(c2ccc(C(=O)O)cc2Cl)N=C(Nc2nc3ccc(F)cc3o2)N1 (configuration not stated) | 15.3 | > 83 | > 30 | < 1 | – |
| CNCCNC(=O)C1=C(C)NC(Nc2nc3ccc(F)cc3o2)=NC1c1ccccc1Cl (configuration not stated) | 6.11 | > 67 | – | > 30 | – |
| COC(=O)c1ccnc(NC(=O)C2=C(C)NC(Nc3nc4ccc(F)cc4o3)=N[C@H]2c2ccccc2Cl)c1 | 4.32 | – | 30.9 | < 21.9 | – |
| CC1=C(C(=O)Nc2ccc(O)cc2)C(c2ccccc2Cl)N=C(Nc2nc3ccccc3o2)N1 (configuration not stated) | 9.68 | – | > 30 | < 14.5 | – |
| CC1=C(C(=O)Nc2nncs2)C2(CCSCC2)N=C(Nc2nc3ccccc3o2)N1 | 24.3 | 3.5 (≈ 7.93 µM) | > 30 | – | – |
| CCn1ncc(CNC(=O)C2=C(C)NC(Nc3nc4ccc(F)c(N)c4o3)=NC2c2ccc(C)cc2Cl)c1F (configuration not stated) | 1.09 | < 1 | 7.04 | – | – |
| CNC(=O)c1ccnc(NC(=O)C2=C(C)NC(Nc3nc4ccccc4o3)=NC2c2ccccc2Cl)c1 (configuration not stated) | 10.9 | < 1 | > 30 | – | – |
| CC1=C(C(=O)Nc2cc(C(=O)O)ccn2)C(c2ccc(N3CCCCC3)cc2Cl)N=C(Nc2nc3ccc(F)cc3o2)N1 (configuration not stated) | 12.2 | 1.92 (≈ 3.18 µM) | > 30 | – | – |

More lines, now with the values ahead:

| IC50 [1] [µM] | solubility kinetic [2] [µg/mL] | half-life [3] [min] | Papp [4] [×10⁻⁶ cm/s] | permeability [4] | Structure (SMILES) |
| --- | --- | --- | --- | --- | --- |
| 10.9 | > 87 | > 30 | < 1 | – | CC1=C(C(=O)Nc2cc(C(=O)O)ccn2)C(c2ccc(N3CCCC3)cc2Cl)N=C(Nc2nc3ccc(F)cc3o2)N1 (configuration not stated) |
| 17.2 | > 79 | > 30 | < 1 | – | CC1=C(C(=O)Nc2cc(C(=O)O)ccn2)C(c2cccc(N)c2Cl)N=C(Nc2nc3ccc(F)cc3o2)N1 (configuration not stated) |
| 24.3 | 15.3 (≈ 33.9 µM) | 2.1 | – | 1046.7 10^-6 cm/s | CC1=C(C(=O)N2CCOCC2)C(c2ccccc2Cl)N=C(Nc2nc3ccccc3o2)N1 (configuration not stated) |
| 4.85 | < 1 | > 30 | < 6.8 | – | CC1=C(C(=O)Nc2cc(C#N)ccn2)C(c2ccccc2Cl)N=C(Nc2nc3ccc(F)cc3o2)N1 (configuration not stated) |
| 17.2 | < 1 | 7.71 | – | 1038.5 10^-6 cm/s | CC1=C(C(=O)Nc2ccccc2CO)C(c2ccccc2Cl)N=C(Nc2nc3ccccc3o2)N1 (configuration not stated) |
| 0.69 | > 90 | > 30 | < 1 | – | CC1=C(C(=O)Nc2cc(C(=O)O)ccn2)C(c2ccc(-c3cnc(C)nc3)cc2Cl)N=C(Nc2nc3ccc(F)cc3o2)N1 (configuration not stated) |
| 38.5 | < 1 | > 30 | < 9.9 | – | CC1=C(C(=O)Nc2nnc(-c3cccnc3)s2)C(c2ccccc2Cl)N=C(Nc2nc3ccc(F)cc3o2)N1 (configuration not stated) |
| 3.06 | > 74 | > 30 | < 1 | – | CC1=C(C(=O)Nc2ccnc(C(=O)O)c2)C(c2ccccc2Cl)N=C(Nc2nc3ccccc3o2)N1 (configuration not stated) |
| 6.85 | 53.8 (≈ 101 µM) | > 30 | < 1 | – | CC1=C(C(=O)Nc2cc(C(=O)O)ccn2)[C@@H](c2ccc(C)cc2Cl)N=C(Nc2nc3ccc(F)cc3o2)N1 |
| 86.3 | – | 24.3 | < 7.4 | – | COC(=O)c1ccnc(NC(=O)C2=C(C)NC(Nc3nc4ccc(F)cc4o3)=N[C@@H]2c2ccccc2Cl)c1 |
| 19.3 | > 85 | > 30 | < 1 | – | CCOC(=O)N1C(Nc2nc3ccccc3o2)=NC(c2ccccc2Cl)C(C(=O)Nc2cc(C(=O)O)ccn2)=C1C (configuration not stated) |
| 3.43 | > 87 | > 30 | < 1 | – | CC1=C(C(=O)Nc2cc(C(=O)O)ccn2)C(c2ccc(-n3cccn3)cc2Cl)N=C(Nc2nc3ccc(F)cc3o2)N1 (configuration not stated) |
| 7.69 | 23.9 (≈ 47.3 µM) | 30 | < 4.7 | – | O=C1CC(C(=O)N2CCNCC2)CC2=C1C(c1ccccc1Cl)N=C(Nc1nc3ccccc3o1)N2 (configuration not stated) |
| 19.3 | 1.8 (≈ 3.81 µM) | 6.56 | – | 1424 10^-6 cm/s | CC1=C(C(=O)NCc2ccccn2)C(c2ccccc2Cl)N=C(Nc2nc3ccccc3o2)N1 (configuration not stated) |
| – | < 1 | > 30 | < 4.9 | – | CC1=C(C(=O)Nc2cc(C(=O)O)ccn2)C(c2ccc(-c3ccccc3)cc2Cl)N=C(Nc2nc3ccc(F)cc3o2)N1 (configuration not stated) |
| 10.9 | – | 5.19 | < 19.3 | – | CC1=C(C(=O)NCc2ccccc2O)C(c2ccccc2Cl)N=C(Nc2nc3ccccc3o2)N1 (configuration not stated) |
| 19.3 | 6.5 (≈ 12.7 µM) | > 30 | – | – | CC1=C(C(=O)Nc2nncs2)C(c2ccncc2Br)N=C(Nc2nc3ccccc3o2)N1 (configuration not stated) |
| 54.4 | 34.6 (≈ 75.9 µM) | > 30 | – | – | CC1=C(C(=O)Nc2nncs2)C(c2n[nH]cc2Cl)N=C(Nc2nc3ccccc3o2)N1 (configuration not stated) |
